Data reported in publication PMC6149949, “Synthesis and Evaluation of Thiochroman-4-One Derivatives as Potential Leishmanicidal Agents” (Molecules : A Journal of Synthetic Chemistry and Natural …, 2017).

Key:
in vitro = details: human
Procedure: Cytotoxicity of the compounds was evaluated over human monocytes (U-937 ATCC CRL-1593.2) in exponential growing phase and, adjusted at 1 × 10^5 cells/mL in RPMI-1640 enriched with 10% fetal bovine serum (FBS). One hundred microliters of cell suspension were dispensed in each well of a 96-wells microplate and then, 100 μL of each compound or standard drug (amphotericin B) at four serial dilution concentrations (200, 50, 12.5 and 3.125 μg/mL) were added dissolved in pbs with 0.5% DMSO. Cell exposed to compounds or standard drugs were incubated 72 h at 37 °C and 5% of CO2. Cytotoxic activity of each compound was determined according to the effect on the cell viability by the MTT microenzymatic method in which 3-(4,5-dimethylthiazol-2-yl)- 2,5-diphenyltetrazolium bromide is reduced to a purple product named formazan by mitochondrial enzyme succinate dehydrogenase. Thus, 10 μL/well of MTT solution (5 mg/mL) were added to each well of exposed and unexposed cells, and plates were incubated at 37 °C, 5% CO2 during 3 h. The reaction was stopped by adding 100 μL/well of isopropanol with 50% and 10% of SDS (sodium dodecyl sulfate). The concentration of formazan was determined spectrophotometrically at 570 nm (Varioskan Flash Multimode Reader, Thermo Scientific, Waltham, MA, USA) and intensity of color (absorbance) was registered as O.D. Cells exposed to control drug (amphotericin B) were used as control for toxicity (positive control) while cell incubated in absence of any compound or drug were used as control for viability (negative control). Non-specific absorbance was corrected by subtracting absorbance (O.D) of the blank. Determinations were done by triplicate in at least two independent experiments.
Cytotoxicity was determined according to viability and mortality percentages obtained for each experimental condition (synthetized compounds, amphotericin B and culture medium). Results were expressed as the mean lethal concentrations (LC50), concentration necessary to kill 50% of cells, calculated by the parametric method of linear regression that permits doses-response analysis (Probit analysis).
Initially, viability percentages were calculated by Equation (1), where the O.D of control well, corresponds to 100% of viability. % viability = (O.D exposed cells/O.D unexposed cells) × 100(1)
Then, the percentage of cell growth inhibition was calculated using Equation (2):% inhibition = 100 − (% Viability)(2)
The toxicity was defined according to LC50 values, using the follow scale: Toxic; LC50 < 100 μM; moderately toxic; LC50 > 100 μM and <200 μM and potentially nontoxic; LC50 > 200 μM.

[1] = tested on: intracellular amastigotes of Leishmania panamensis (MHOM/CO/87/UA140-EGFP strain); assay: In vitro antileishmanial activity on intracellular amastigotes (GFP, flow cytometry); assay type: cell-based; details: for EC50: intracellular amastigotes of L. panamensis in U-937 cells, 72 h, mean ± SD; for SI (index of selectivity, IS = LC50/EC50): LC50 U-937 / EC50 L. panamensis amastigotes
Procedure: Antileishmanial activity of compounds was determined according to the ability of the compound to reduce the infection by L. panamensis parasites. For this, the antileishmanial activity was tested on intracellular amastigotes of L. panamensis transfected with the green fluorescent protein gene (MHOM/CO/87/UA140-EGFP strain). Briefly, U-937 human cells at a density of 3 × 10^5 cells/mL in RPMI 1640 and 0.1 μg/mL of PMA (phorbol-12-myristate-13-acetate) were dispensed on 24-wells microplate and then infected with stationary phase growing L. panamensis promastigotes in 15:1 parasites per cell ratio. Plates were incubated at 34 °C and 5% CO2 for 3 h and then cells were washed twice with phosphate buffer solution (PBS) to eliminate not internalized parasites. Fresh RPMI-1640 was added into each well (1 mL) and plates were incubated again. After 24 h of infection, the RPMI-1640 medium was replaced by fresh culture medium containing each compound at four serial dilutions (50, 12.5, 3.125 and 0.78 μg/mL) and plates were then incubated at 37 °C and 5% CO2 during 72 h, then, cells were removed from the bottom plate with 100 μL of EDTA/Trypsin (250 mg) solution. The cells were centrifuged at 1100 rpm during 10 min at 4 °C, the supernatant was discarded and cells were washed with 1 mL of cold PBS and centrifuged at 1100 rpm for 10 min at 4 °C. Cells were washed two times employing PBS, as previously, and after the last wash, the supernatant was discarded and cells were suspended in 500 μL of PBS.
Cells were analyzed by flow cytometry employing a flow cytometer (cytomics FC 500MPL, Beckman Coulter. Pasadena, CA, USA) reading at 488 nm (exciting) and 525 nm (emitting) over an argon laser and counting 10,000 events. Infected cells were determined according the events for green fluorescence (parasites). All determinations for each compound and standard drug were carried out by triplicate, in two experiments. Infected cells exposed to control drug (amphotericin B) were used as control for antileishmanial activity (positive control) while infected cells incubated in absence of any compound or drug were used as control for infection (negative control). Nonspecific fluorescence was corrected by subtracting fluorescence of unstained cells. Determinations were done by triplicate in at least two independent experiments.
Antileishmanial activity was determined according reduction of percentage of fluorescent parasites determined according to the median fluorescence intensity (MFI), obtained for each experimental condition by cytometry. The parasite values for each concentration of compound were calculated by Equation (3), where the % of parasites in the control well, corresponds to 100% of parasites. % parasites = (MFI exposed parasites/MFI unexposed parasites) × 100(3)
Then, inhibition percentage was calculated with Equation (4):% inhibition of parasites = 100 − (% parasites)(4)
Results of antileishmanial activities were expressed as the median effective concentrations (EC50) measured by Probit method.

[2] = Leishmania panamensis, U-937, 72 h

Structure (SMILES) | CC50 at 72 h (in vitro) | EC50 [1, 2] | SI (index of selectivity, IS = LC50/EC50) [1] | EC50 [1]
O=C1CC(c2ccc(F)cc2)S(=O)(=O)c2ccccc21 (stereo not drawn) [Compound 3l, 2-(4-Fluorophenyl)thiochroman-4-one 1,1-dioxide] | 689 µM | > 68.9 µM |  | 
CC1CC(=O)c2ccccc2S1 (stereo not drawn) [Compound 1a, 2-Methylthiochroman-4-one] | 604 ± 86.4 µM |  | 1.36 | 
O=C1CCS(=O)(=O)c2ccc(F)cc21 [Compound 3c, 6-Fluorothiochroman-4-one 1,1-dioxide] | > 934 µM | > 93.5 µM |  | 
O=c1cc(-c2ccc(C(F)(F)F)cc2)sc2ccc(F)cc12 [Compound 2j, 6-Fluoro-2-(4-(trifluoromethyl)-phenyl)-4H-thiochromen-4-one] | 51.4 ± 11.6 µM | 52.3 ± 8.92 µM | 0.98 | 
O=C1CC(c2ccc(C(F)(F)F)cc2)S(=O)(=O)c2ccc(F)cc21 (stereo not drawn) [Compound 3j, 6-Fluoro-2-(4-(trifluoromethyl)-phenyl)-thiochroman-4-one 1,1-dioxide] | > 558 µM | 79.1 ± 8.98 µM | >7.06 | 
Nc1ccc2c(c1)C(=O)CCS2 [Compound 1g, 6-Aminothiochroman-4-one] | 118 ± 10.5 µM | > 112 µM | <1.100 | 
O=C1C=C(c2ccc([N+](=O)[O-])cc2)S(=O)(=O)c2ccccc21 [Compound 4m, 2-(4-Nitrophenyl)-4H-thiochromen-4-one 1,1-dioxide] | > 634 µM | < 10 µM | >87.70 | 7.23 ± 0.44 µM
O=C1CC(c2ccccc2)Sc2ccccc21 (stereo not drawn) [Compound 1h, 2-Phenylthiochroman-4-one] | > 41.6 µM | 44.1 ± 0.9 µM |  | 
O=C1CC(c2ccc(C(F)(F)F)cc2)Sc2ccccc21 (stereo not drawn) [Compound 1i, 2-(4-(Trifluoromethyl)-phenyl)-thiochroman-4-one] | > 649 µM | 61.4 ± 1.62 µM | >10.56 | 
C[C@@H]1[C@H](O)[C@@H](C)/C=C/C=C/C=C/C=C/C=C/C=C/C=C/[C@H](O[C@@H]2O[C@H](C)[C@@H](O)[C@H](N)[C@@H]2O)C[C@@H]2O[C@](O)(C[C@@H](O)C[C@@H](O)[C@H](O)CC[C@@H](O)C[C@@H](O)CC(=O)O[C@H]1C)C[C@H](O)[C@H]2C(=O)O [Amphotericin B, reference compound] | 39.6 ± 8.7 µM | 0.32 µM |  | 
O=C1C=C(c2ccc(C(F)(F)F)cc2)S(=O)(=O)c2ccc(F)cc21 [Compound 4j, 6-Fluoro-2-(4-(trifluoromethyl)-phenyl)-4H-thiochromen-4-one 1,1-dioxide] | > 561 µM |  |  | 
O=C1C=C(c2ccc(C(F)(F)F)cc2)S(=O)(=O)c2ccccc21 [Compound 4i, 2-(4-(Trifluoromethyl)-phenyl)-4H-thiochromen-4-one 1,1-dioxide] | > 591 µM | < 10 µM | >80.97 | 7.3 ± 1.6 µM
O=C1CC(C(=O)O)Sc2ccccc21 (stereo not drawn) [Compound 1e, 4-Oxothiochroman-2-carboxylic acid] | 143 ± 16.8 µM | > 96.1 µM | <1.48 | 
O=C1C=C(c2ccccc2)S(=O)(=O)c2ccccc21 [Compound 4h, 2-Phenyl-4H-thiochromen-4-one 1,1-dioxide] | > 740 µM | < 10 µM | >97.94 | 7.56 ± 0.33 µM
O=C1CCSc2ccc(F)cc21 [Compound 1c, 6-Fluorothiochroman-4-one] | 705 µM | > 110 µM | <6.42 | 
O=C1CC(c2ccc(C(F)(F)F)cc2)Sc2ccc(F)cc21 (stereo not drawn) [Compound 1j, 6-Fluoro-2-(4-(trifluoromethyl)-phenyl)thiochroman-4-one] | 129 ± 3.45 µM | 80.3 ± 12.1 µM | 1.60 | 
O=C1C=C(c2ccc(Cl)cc2)S(=O)(=O)c2ccccc21 [Compound 4k, 2-(4-Chlorophenyl)-4H-thiochromen-4-one 1,1-dioxide] | > 656 µM | < 10 µM | >87.70 | 7.47 ± 0.75 µM
O=c1cc(-c2ccc(C(F)(F)F)cc2)sc2ccccc12 [Compound 2i, 2-(4-(Trifluoromethyl)-phenyl)-4H-thiochromen-4-one] | 522 ± 314 µM | 161 ± 20.5 µM | 3.24 | 
O=C1C=C(c2ccc(F)cc2)S(=O)(=O)c2ccccc21 [Compound 4l, 2-(4-Fluorophenyl)-4H-thiochromen-4-one 1,1-dioxide] | > 694 µM | < 10 µM |  | 6.72 ± 0.16 µM
O=C1CCSc2ccc([N+](=O)[O-])cc21 [Compound 1f, 6-Nitrothiochroman-4-one] | > 200 µM | > 95.6 µM |  | 
O=C1CC(c2ccc([N+](=O)[O-])cc2)Sc2ccccc21 (stereo not drawn) [Compound 1m, 2-(4-Nitrophenyl)-thiochroman-4-one] | > 701 µM | > 70.1 µM |  | 
O=C1CC(c2ccc(Cl)cc2)S(=O)(=O)c2ccccc21 (stereo not drawn) [Compound 3k, 2-(4-Chlorophenyl)-thiochroman-4-one 1,1-dioxide] | > 652 µM | 137.1 ± 1.29 µM | >4.76 | 
CC1CC(=O)c2cc(F)ccc2S1(=O)=O (stereo not drawn) [Compound 3b, 6-Fluoro-2-methylthiochroman-4-one 1,1-dioxide] | > 876 µM | > 87.7 µM |  | 
O=C1CC(c2ccccc2)S(=O)(=O)c2ccccc21 (stereo not drawn) [Compound 3h, 2-Phenylthiochroman-4-one 1,1-dioxide] | 529 ± 52.9 µM | 217 ± 34.9 µM |  | 
O=c1cc(-c2ccc(Cl)cc2)sc2ccccc12 [Compound 2k, 2-(4-Chlorophenyl)-4H-thiochromen-4-one] | > 733 µM | > 73.3 µM |  | 
O=C1CC(c2ccc(Cl)cc2)Sc2ccccc21 (stereo not drawn) [Compound 1k, 2-(4-Chlorophenyl)-thiochroman-4-one] | 64.4 ± 3.98 µM | > 72.8 µM | <0.90 | 
O=C1CC(c2ccc(C(F)(F)F)cc2)S(=O)(=O)c2ccccc21 (stereo not drawn) [Compound 3i, 2-(4-(Trifluoromethyl)-phenyl)-thiochroman-4-one 1,1-dioxide] | 62.9 ± 10.3 µM | 84.8 ± 3.23 µM | 0.74 | 
O=C1CC(c2ccc([N+](=O)[O-])cc2)S(=O)(=O)c2ccccc21 (stereo not drawn) [Compound 3m, 2-(4-Nitrophenyl)-thiochroman-4-one 1,1-dioxide] | > 630 µM | > 63 µM |  | 
